{"source": "patent US7592326B2", "about": "“Method for stimulating the immune, inflammatory or neuroprotective response” (priority 2004, dated 2009)", "tested_on": "Plasmacytoid dendritic cells (pDCs)", "experiment": "IFN secretion by human plasmacytoid dendritic cells", "assay_type": "cell-based", "conditions": "two independent experiments in duplicate; data not shown", "protocol": "Venipuncture was performed on consenting adults using approved protocols. Plasmacytoid dendritic cells (pDCs) were prepared, as previously described (Schroeder et al., 2005), using a 2-step procedure involving Percoll density centrifugation followed with selection for Blood Dendritic Cell Antigen (BDCA)-4 positive cells (Miltenyi Biotec, Inc., Auburn, Calif.). The capacity of c-di-GMP to induce IFN-alpha from these cells was assessed using cell culture and ELISA protocols also previously described (Schroeder et al., 2005) and was simultaneously compared to the […] produced by pDC in response to cells stimulated with CpG oligodeoxynucleotide (ODN)-2216 (Krieg, 2002)."}
{"smiles": "Nc1nc(=O)c2ncn([C@@H]3OC4COP(=O)(O)O[C@H]5[C@@H](O)[C@H](n6cnc7c(=O)nc(N)[nH]c76)O[C@@H]5COP(=O)(O)OC4C3O)c2[nH]1", "note": "(stereo partly shown) [c-di-GMP, Bis(3′→5′)-cyclic diguanylic acid]", "values": [{"measurement": "induction of Type I IFN from pDC", "value": "negative"}]}
